In data set [1] the target is T1, A2aR (Homo sapiens, UniProt P29274).
T1 construct: host or cells: CHO
The experiment in a line: cAMP accumulation assay (HTRF) in CHO-A2aR cells. Format: cell-based.
Method: CHO cells stably expressing human adenosine receptors (CHO-A2aR, CHO-A2bR, CHO-A1R and CHO-A3R) were purchased from GenScript. […] All CHO cells were cultured in Ham’s F12K medium (Gibco) with 10% FBS (Gibco) and RM-1 in DMEM (Gibco) medium with 10% FBS. […] All other cells were cultured without antibiotics. All cells were maintained and propagated in a humidified incubator at 37 °C, 5% CO2.
Assays were performed with HTRF cAMP kit (Cisbio, 62AM4PEJ). […] CHO-A2aR and CHO-A2bR cells were seeded in the plates at a density of 5,000 cells/well in F-12 medium containing 10% FBS. […] The dose-response curves were fitted by nonlinear regression using GraphPad Prism.

Data set [2] relates to CREB phosphorylation in T cells. The experiment in a line: pCREB signaling inhibition assay, ex vivo human whole blood T cells. Format: cell-based. Particulars: for IC50: Homo sapiens, T-cell, read-out: IC50, block of CREB phosphorylation in CD4+ T cells; for pCREB at the highest concentration tested: 10 µM antagonist. The protocol: Whole blood samples from three different healthy donors were collected and seeded in 96-well deep plates at a concentration of 90 µL/well. […] Cells were then lysed and fixed with BD Lyse/Fix Buffer (BD Bioscience, 558,049) for 15 min at 37 °C. After washed twice with DPBS (Hyclone, SH30028.02), the cells were centrifuged at 600 × g for 8 min. Cells were permeabilized by slow addition of BD Phosflow™ Perm Buffer III (BD Bioscience, 55,805) and incubated on ice for 60 min, and then resuspended in DPBS and stained with anti-CD3, anti-CD4, anti-CD8, and anti-pCREB (Ser133) antibodies for 1 h at room temperature in the dark. Cells were then washed twice and acquired on a flow cytometric (BD FACSCanto™ II) with DIVA software (BD Biosciences). The reported pCREB signal is the mean fluorescent intensity (MFI).
For ex vivo pCREB assessment, whole blood samples were collected from healthy donors, plated at 90 µL/well in 96-well deep plates, and pre-incubated with DZD2269 at 37 °C for 30 min.

Data set [3] relates to monocyte-derived dendritic cells. The experiment in a line: DC maturation assay (CD83). Type of data set: cell-based, human. The conditions noted are these: LPS-stimulated iDCs, 10 µM NECA. The protocol: Monocytes were isolated from human PBMCs using untouched human monocytes kit (Invitrogen, #11350D) according to the manufacturer instruction. Isolated monocytes were cultured with 100 ng/ml GM-CSF (R&D, 215-GM) and 50 ng/ml IL-4 (R&D, 204-IL) supplemented every 2 days. On day 5, 100 ng/ml LPS (Sigma, L4391) was added for 48 h to stimulate DC maturation. […] CD83 was measured as DC maturation marker by flow cytometry, and the gating strategy is shown in supplemental Fig. S2. Data were analyzed with FlowJo software.

The test system of data set [4] is activated human PBMCs. The data set can be described thus: PBMC cytokine release assay (IL-2, IFN-γ, TNF-α). Type of data set: cell-based. Particulars: NECA at 10 µM. The protocol:
PBMCs (2 × 10^5 cells/well) were seeded in 96 well plate pre-coated with 10 ng/ml anti-CD3 antibody and stimulated with 20 ng/ml anti-CD28 antibodies to test IFN-γ and IL-2 secretion) or stimulated with 100 ng/ml LPS for TNF-α detection. […] Cell supernatants were collected at 24 h (IL-2 and TNF-α) and 72 h (IFN-γ) post-stimulation. IL-2 (R&D, S2050), IFN-γ (R&D, SIF50) and TNF-α (eBioscience, 88-7346-88) ELISA kits were used for measurement.

Data set [5] relates to CREB phosphorylation in CD3+ T cells. The data set can be described thus: CREB phosphorylation assay in whole blood. Format: cell-based. Particulars: human whole blood, up to 100 µM.
Method: Whole blood samples from three different healthy donors were collected and seeded in 96-well deep plates at a concentration of 90 µL/well. […] After washed twice with DPBS (Hyclone, SH30028.02), the cells were centrifuged at 600 × g for 8 min. […] Cells were then washed twice and acquired on a flow cytometric (BD FACSCanto™ II) with DIVA software (BD Biosciences). The reported pCREB signal is the mean fluorescent intensity (MFI).
Details of data set [6]: method as in PMID 24835328, PMID 32685154. Particulars: cited from earlier work.
Data set [7] relates to Pan02 tumors. The data set can be described thus: Pan02 pancreatic subcutaneous syngeneic model. Format: in vivo, C57BL/6 mice. The conditions noted are these: oxaliplatin 10 mg/kg alone or DZD2269 3 mg/kg alone. The protocol:
B16F10, RM-1 and Pan02 cells were harvested and suspended in DPBS. Single-cell suspensions of greater than 90% viability were used for injection. Tumor cells were injected subcutaneously in the left flank of the C57BL/6 mice with a total cell number of 2 × 10^6 (B16F10 and RM-1) and 1 × 10^7 cells (Pan02) in a volume of 0.1 ml. Tumor-bearing mice were randomized into treatment groups when the mean tumor volume reached 40 to 100 mm^3. Mice were then treated with vehicle or compounds starting the day after randomization, and tumor volume and body weight were measured twice a week. Tumor growth inhibition from the onset of treatment was assessed by comparing the mean change in tumor volume between control and treatment groups and expressed as tumor growth inhibition. Tumor nodules were measured two-dimensionally with calipers, and tumor volumes were calculated using the following formula: tumor volume (TV) = (length × width^2) × 0.52.
Tumor tissues were collected at the end of the study. […] Positive cell percentage of stained IHC slides was quantified with a HALO image analysis platform (Indica Labs).
Fig. 4 DZD2269 enhances the efficacy of radiotherapy (RT) in syngeneic mouse in vivo models. […] (A) IFN-γ in supernatant was measured 72 h after co-culture. (B) IL-2 in supernatant was measured 24 h after co-culture. […] Infiltrated CD8 + and CD4 + T cells were determined by IHC. […]

Each structure is given as a SMILES string.

T1 sequence (P29274 whole entry): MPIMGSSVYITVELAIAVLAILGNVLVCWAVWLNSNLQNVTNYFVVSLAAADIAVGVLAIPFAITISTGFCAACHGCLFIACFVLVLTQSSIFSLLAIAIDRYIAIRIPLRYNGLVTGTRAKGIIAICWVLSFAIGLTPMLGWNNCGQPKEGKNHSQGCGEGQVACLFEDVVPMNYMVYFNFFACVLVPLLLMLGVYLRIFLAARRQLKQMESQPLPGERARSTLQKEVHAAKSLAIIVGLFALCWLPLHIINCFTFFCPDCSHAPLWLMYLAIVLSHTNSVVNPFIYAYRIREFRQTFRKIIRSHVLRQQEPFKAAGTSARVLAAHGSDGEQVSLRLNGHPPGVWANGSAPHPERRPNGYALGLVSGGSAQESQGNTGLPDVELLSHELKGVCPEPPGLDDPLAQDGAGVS

Turning to `Cc1c(C#N)cccc1-c1cc(-c2cn(Cc3cccc(C(C)(C)O)n3)nn2)nc(N)n1` [AB928], the IC50 came out at 4.1 ± 1.2 nM in data set [1] (stimulated with 0.1 µM NECA); 3.4 ± 0.92 nM in data set [1] (stimulated with 1 µM adenosine); 408 ± 25 nM in data set [1] (stimulated with 10 µM NECA); 463 ± 90 nM in data set [1] (stimulated with 100 µM adenosine); 130 nM in data set [2]. For the same compound, the “Concentration that brings pCREB to the control level” value in data set [2] (human whole blood, 10 µM NECA) is on record as “over 1,000 nM”. Moreover, the “Relief of NECA inhibition of DC maturation (CD83)” value in data set [3] is “did not relieve the inhibitory effect”.
Turning to `Cc1cc(-c2nnc(N)nc2-c2ccc(F)cc2)cc(Cl)n1` [AZD4635], the “pCREB at the highest concentration tested” value in data set [2] (human whole blood, 10 µM NECA) was “failed to bring pCREB to the baseline (control) level”. Besides, the IC50 in data set [2] was over 1000 nM.
The matching figures for `Cc1ccc(-c2nc(N)nc3c2nnn3Cc2cccc(CO[C@H]3CCOC3)n2)o1` [CPI-444]: “failed to bring pCREB to the baseline (control) level” and over 1000 nM.
`CCNC(=O)[C@H]1O[C@@H](n2cnc3c(N)ncnc32)[C@H](O)[C@@H]1O` [NECA, 5′-N-ethylcarboxamide adenosine]: in data set [4], the “IL-2, IFN-γ and TNF-α production” value is reported as “completely blocked”. Besides, the “CREB phosphorylation in CD3+ T cells” value in data set [5] is “stimulated CREB phosphorylation in a concentration dependent manner”.
Consider `Nc1ncnc2c1ncn2[C@@H]1O[C@H](CO)[C@@H](O)[C@H]1O` [adenosine], for which, in data set [6], the “Biological half-life in human blood” value is “less than 10 s”.
For the compound `O=C1[O][Pt]2([NH][C@@H]3CCCC[C@H]3[NH]2)[O]C1=O` [oxaliplatin, Oxaliplatin], the “Anti-tumor effect, single agent” value in data set [7] is given as “showed some anti-tumor effect”.

In general, IC50 refers to the concentration that gives 50% inhibition.
